Measurements: patent publication US11708346B2, “Treatment and prevention of neuropathic pain with P2Y14 antagonists” (Saint Louis University, priority 2019, dated 2023)
Where “and” joins values, the source holds several entries; their conditions need not be identical. Equal entries are not always repeated. Entries after “also recorded” stand apart in the source; their conditions may differ.

Experiments:
[1] = test system: CCI-induced mechano-allodynia; experiment: Chronic constriction injury (CCI) of the sciatic nerve, mechano-allodynia by von Frey filaments; assay type: in vivo, mouse; details: for Reversal of CCI-induced mechano-allodynia: ipsilateral hind paw; for Reversal of CCI-induced mechano-allodynia / Effect at 0.5 h (% ± SD), percent inhibition of mechano-allodynia / Effect at 1 h (% + SD), percent inhibition of mechano-allodynia / Effect at 2 h (% ± SD), percent inhibition of mechano-allodynia / Effect at 3 h (% ± SD), percent inhibition of mechano-allodynia / Effect at 5 h (% ± SD), percent inhibition of mechano-allodynia / ED50: day 7 post-CCI; for Effect at 0.5 h (% ± SD), percent inhibition of mechano-allodynia / Effect at 1 h (% + SD), percent inhibition of mechano-allodynia / Effect at 2 h (% ± SD), percent inhibition of mechano-allodynia / Effect at 3 h (% ± SD), percent inhibition of mechano-allodynia / Effect at 5 h (% ± SD), percent inhibition of mechano-allodynia: n = 3; for ED50: Mus musculus, ip, read-out: ED50 at 1 h (95% CI), reversal of mechano-allodynia, 1 h post drug
Procedure: Chronic constriction injury (CCI) to the sciatic nerve was performed using the Bennett model. […] Then the animals were placed on a sterile surgical field and the skin was wiped with topical antiseptic, Dermachlor solution (0.2% chlorhexidine gluconate). […] A small incision was created on the lateral side of the left hind limb parallel to the femur. The sciatic nerve was exposed and ligated on two sites about 1 mm apart above the trifurcation using silk sutures 6.0. The incision was closed with clips and lidocaine cream was applied.
Mice were acclimated to the testing mesh-rack for 30 min before behavioral measurements. All behavioral testing was performed in the morning. The baseline measurements were determined on day 0 before CCI procedure. On day 7 post-CCI, baseline behavior responses were assessed, beginning prior to drug administration. Following drug injection, the behaviors were evaluated at multiple time points. Mechano-allodynia was quantified according to the hind paw withdrawal response to von Frey filaments stimulation by the Dixon up-and-down method. […] In presence of a positive withdrawal response a lighter filament was applied. If a negative response occurred, a stronger filament was used. At least four readings are obtained after the first positive response and the pattern of response was converted to a 50% paw withdrawal threshold (PWT), using the method described by Chaplan et al., J. Neurosci.
Data are expressed as mean±SD and analyzed by two-tailed, two-way repeated measures ANOVA with Dunnett's post hoc comparisons to day 7 behavior. The percentage of reversal of peak CCI-induced pain afforded by each drug was calculated for each animal using their baseline and day 7 post CCI behavioral measures. % Reversal=(PWT(g)t−PWT(g)day7)/PWT(g)day0−PWT(g)day7)×100, where PWT(g)=paw withdrawal threshold, t=time after drug. […] All statistical analyses were performed using GraphPad Prism 8 (Graph Pad Inc., San Diego, Calif.). Significance was accepted at p<0.05.

CB1 cannabinoid receptor = target: T1, CB1 cannabinoid receptor (Homo sapiens, UniProt P21554); experiment: PRESTO-Tango agonist/antagonist assay; assay type: cell-based
T1 construct: expressed in transfected cells
T1 sequence (P21554 whole entry): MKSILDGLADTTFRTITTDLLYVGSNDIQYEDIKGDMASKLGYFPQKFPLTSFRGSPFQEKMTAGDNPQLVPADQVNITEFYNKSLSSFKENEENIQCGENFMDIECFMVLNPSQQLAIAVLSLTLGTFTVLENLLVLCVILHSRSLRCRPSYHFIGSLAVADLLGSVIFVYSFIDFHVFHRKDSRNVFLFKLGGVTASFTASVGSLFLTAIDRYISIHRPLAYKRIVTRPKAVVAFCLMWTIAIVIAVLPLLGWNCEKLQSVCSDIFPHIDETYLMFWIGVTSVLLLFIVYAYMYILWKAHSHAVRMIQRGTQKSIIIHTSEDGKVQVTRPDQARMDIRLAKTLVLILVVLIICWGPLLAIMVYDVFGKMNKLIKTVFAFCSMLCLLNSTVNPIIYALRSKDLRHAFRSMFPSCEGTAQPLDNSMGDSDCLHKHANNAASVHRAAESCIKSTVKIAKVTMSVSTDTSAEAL
Procedure: (§1) Synthesis of 7 was performed using a Sonogashira reaction (11 to 12), click reaction (13 to 14) and a Suzuki reaction (15 to 16) followed by two-step deprotection. […].

CB2 cannabinoid receptor = target: T2, CB2 cannabinoid receptor (Homo sapiens, UniProt P34972); experiment: PRESTO-Tango agonist/antagonist assay; assay type: cell-based
T2 construct: expressed in transfected cells
T2 sequence (P34972 whole entry): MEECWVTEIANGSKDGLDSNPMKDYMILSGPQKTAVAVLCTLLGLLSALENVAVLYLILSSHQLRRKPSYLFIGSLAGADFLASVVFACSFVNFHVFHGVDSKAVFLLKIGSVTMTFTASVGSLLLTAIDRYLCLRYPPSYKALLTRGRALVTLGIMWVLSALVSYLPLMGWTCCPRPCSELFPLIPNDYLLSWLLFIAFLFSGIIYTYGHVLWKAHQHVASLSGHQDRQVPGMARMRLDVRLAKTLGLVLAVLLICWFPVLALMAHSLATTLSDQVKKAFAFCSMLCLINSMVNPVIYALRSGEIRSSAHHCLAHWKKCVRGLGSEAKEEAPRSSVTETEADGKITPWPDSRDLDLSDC
Procedure: as §1

hP2Y14R = target: T3, hP2Y14R (Homo sapiens, UniProt Q15391); experiment: Competitive fluorescent binding assay in whole CHO-hP2Y14R cells, tracer 20, flow cytometry; details: read-out: Human P2Y14R binding affinity (IC50)
T3 construct: expressed in transfected cells; host or cells: CHO
T3 sequence (Q15391 1-338): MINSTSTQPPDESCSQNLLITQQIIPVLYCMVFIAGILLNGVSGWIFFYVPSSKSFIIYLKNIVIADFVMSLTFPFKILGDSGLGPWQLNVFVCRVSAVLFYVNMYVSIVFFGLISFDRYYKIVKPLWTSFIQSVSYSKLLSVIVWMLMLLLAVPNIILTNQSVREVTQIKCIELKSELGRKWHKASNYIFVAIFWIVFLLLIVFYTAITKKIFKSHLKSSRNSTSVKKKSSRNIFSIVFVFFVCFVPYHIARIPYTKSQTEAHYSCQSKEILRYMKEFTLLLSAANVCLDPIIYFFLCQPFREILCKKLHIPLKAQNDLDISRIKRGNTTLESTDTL

5HT1D = 5HT1D (Homo sapiens, UniProt P28221); experiment: PDSP off-target binding; details: ± SEM
Chain of 5HT1D (P28221 whole entry, species assumed): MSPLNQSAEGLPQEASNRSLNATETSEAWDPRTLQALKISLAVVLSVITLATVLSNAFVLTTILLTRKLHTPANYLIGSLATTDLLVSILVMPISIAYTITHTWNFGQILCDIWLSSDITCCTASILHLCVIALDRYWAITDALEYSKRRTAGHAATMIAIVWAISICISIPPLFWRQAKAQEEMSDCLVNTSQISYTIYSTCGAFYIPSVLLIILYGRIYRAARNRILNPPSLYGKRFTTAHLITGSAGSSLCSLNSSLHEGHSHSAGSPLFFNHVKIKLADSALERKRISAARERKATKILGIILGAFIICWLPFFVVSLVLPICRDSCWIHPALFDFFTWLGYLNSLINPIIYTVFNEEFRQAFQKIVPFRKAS

mP2Y14R = target: T4, mP2Y14R (Mus musculus, UniProt Q9ESG6); details: read-out: Mouse P2Y14R binding affinity (IC50); mP2Y14R in HEK293 cells, tracer 20
T4 sequence (Q9ESG6 1-338): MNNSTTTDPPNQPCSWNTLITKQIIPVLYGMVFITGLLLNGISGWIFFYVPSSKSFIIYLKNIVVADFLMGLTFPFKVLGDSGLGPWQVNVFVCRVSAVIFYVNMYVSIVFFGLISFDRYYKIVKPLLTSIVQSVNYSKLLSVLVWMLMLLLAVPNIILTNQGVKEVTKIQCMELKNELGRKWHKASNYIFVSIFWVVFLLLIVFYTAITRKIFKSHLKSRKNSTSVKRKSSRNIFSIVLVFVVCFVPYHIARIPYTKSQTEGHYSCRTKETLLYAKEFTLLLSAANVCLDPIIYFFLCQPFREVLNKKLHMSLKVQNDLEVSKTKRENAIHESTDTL

Compound	Reversal of CCI-induced mechano-allodynia ([1]; 10 μmol/kg, i.p.)	Effect at 0.5 h (% ± SD), percent inhibition of mechano-allodynia ([1]; 10 μmol/kg, i.p.) [%]	Effect at 1 h (% + SD), percent inhibition of mechano-allodynia ([1]; 10 μmol/kg, i.p.)	Effect at 2 h (% ± SD), percent inhibition of mechano-allodynia ([1]; 10 μmol/kg, i.p.) [%]	Effect at 3 h (% ± SD), percent inhibition of mechano-allodynia ([1]; 10 μmol/kg, i.p.) [%]	Effect at 5 h (% ± SD), percent inhibition of mechano-allodynia ([1]; 10 μmol/kg, i.p.) [%]	IC50 (hP2Y14R) [nM]	IC50 (mP2Y14R) [nM]	other results
NCCOCCOCCOCCOCCOCCOCCC(=O)N1CCC(c2ccc(-c3cc(C(=O)O)cc4cc(-c5ccc(C(F)(F)F)cc5)ccc34)cc2)CC1 [Compound 21]	fully efficacious								Time of peak protection ([1]; 10 μmol/kg i.p., after injection): 1 to 2 h; Effect on paw withdrawal threshold at the contralateral hind paw ([1]; 10 μmol/kg, i.p., versus vehicle control): No effect
O=C(O)c1cc(-c2ccc(C3CCNCC3)cc2)c2ccc(-c3ccc(C(F)(F)F)cc3)cc2c1 [Compound 1, 4-[4-(piperidin-4-yl)phenyl]-7-[4-(rifluoromethyl)phenyl]-2-naphthoic acid]	fully efficacious; also recorded: reversed the allodynia	87.9 ± 12.9	100% and 100 ± 0.0%	96.4 ± 6.2	78.6 ± 9.4	21.3 ± 14.1			IC50 (CB1 cannabinoid receptor): > 50 µM; IC50 (CB2 cannabinoid receptor): > 50 µM; Effect at 0.5 h (% ± SD), percent inhibition of mechano-allodynia ([1]; 1 μmol/kg, i.p.): 10.0 ± 17.3%; Effect at 1 h (% + SD), percent inhibition of mechano-allodynia ([1]; 1 μmol/kg, i.p.): 19.9 ± 17.3%; Effect at 2 h (% ± SD), percent inhibition of mechano-allodynia ([1]; 1 μmol/kg, i.p.): 10.0 ± 17.3%; Effect at 3 h (% ± SD), percent inhibition of mechano-allodynia ([1]; 1 μmol/kg, i.p.): 4.7 ± 8.2%; Effect at 5 h (% ± SD), percent inhibition of mechano-allodynia ([1]; 1 μmol/kg, i.p.): 4.7 ± 8.2%; Effect at 0.5 h (% ± SD), percent inhibition of mechano-allodynia ([1]; 3 μmol/kg, i.p.): 62.9 ± 18.7%; Effect at 1 h (% + SD), percent inhibition of mechano-allodynia ([1]; 3 μmol/kg, i.p.): 79.3 ± 2.2%; Effect at 2 h (% ± SD), percent inhibition of mechano-allodynia ([1]; 3 μmol/kg, i.p.): 76.9 ± 6.3%; Effect at 3 h (% ± SD), percent inhibition of mechano-allodynia ([1]; 3 μmol/kg, i.p.): 64.7 ± 17.2%; Effect at 5 h (% ± SD), percent inhibition of mechano-allodynia ([1]; 3 μmol/kg, i.p.): 8.7 ± 15.1%; ED50 ([1]; i.p.): 1.6 µmol/kg
NCCCNC(=O)c1ccc(-c2cc(C(=O)O)cc(-n3cc(-c4ccc(C(F)(F)F)cc4)nn3)c2)s1 [Compound 8]		81.0 ± 6.9	91.5 ± 7.4%	74.0 ± 28.5	30.9 ± 21.0	10.0 ± 17.3	169 ± 42	384	Ki (5HT1D): 6.7 µM; Emax, in vivo efficacy ([1]; 10 μmol/kg i.p.): 91.5%
CCC(=O)N1CCC(c2ccc(-c3cc(C(=O)O)cc4cc(-c5ccc(C(F)(F)F)cc5)ccc34)cc2)CC1 [Compound 5, 4-(4-(1-(Propionyl)piperidin-4-yl)phenyl)-7-(4-(trifluoromethyl)phenyl)-2-naphthoic acid]		32.9 ± 5.7	77.2 ± 26.1%	71.6 ± 19.8	55.7 ± 27.1	5.6 ± 6.4	41.8 ± 1.8	38	
O=C(O)c1cc(-c2ccc(C3CCNCC3)cc2)cc(-n2cc(-c3ccc(C(F)(F)F)cc3)nn2)c1 [Compound 6]		52.4 ± 9.6	67.4 ± 7.0%	57.2 ± 13.3	31.9 ± 16.8	12.7 ± 13.2			Effect at 0.5 h (% ± SD), percent inhibition of mechano-allodynia ([1]; 1 μmol/kg, i.p.): 8.7 ± 15.1%; Effect at 1 h (% + SD), percent inhibition of mechano-allodynia ([1]; 1 μmol/kg, i.p.): 18.7 ± 21.3%; Effect at 2 h (% ± SD), percent inhibition of mechano-allodynia ([1]; 1 μmol/kg, i.p.): 18.7 ± 21.3%; Effect at 3 h (% ± SD), percent inhibition of mechano-allodynia ([1]; 1 μmol/kg, i.p.): 8.7 ± 7.6%; Effect at 5 h (% ± SD), percent inhibition of mechano-allodynia ([1]; 1 μmol/kg, i.p.): 8.7 ± 15.1%; Effect at 0.5 h (% ± SD), percent inhibition of mechano-allodynia ([1]; 3 μmol/kg, i.p.): 44.6 ± 16.6%; Effect at 1 h (% + SD), percent inhibition of mechano-allodynia ([1]; 3 μmol/kg, i.p.): 53.3 ± 24.2%; Effect at 2 h (% ± SD), percent inhibition of mechano-allodynia ([1]; 3 μmol/kg, i.p.): 44.6 ± 16.6%; Effect at 3 h (% ± SD), percent inhibition of mechano-allodynia ([1]; 3 μmol/kg, i.p.): 35.6 ± 11.7%; Effect at 5 h (% ± SD), percent inhibition of mechano-allodynia ([1]; 3 μmol/kg, i.p.): 0.0 ± 0.0%; In vivo efficacy compared with a comparator compound ([1]; 10 μmol/kg i.p., 6 vs 7, 4 vs 1): no statistical difference; ED50 ([1]; i.p.): 3.5 µmol/kg
C#CCCCCN1CCC(c2ccc(-c3cc(C(=O)O)cc4cc(-c5ccc(C(F)(F)F)cc5)ccc34)cc2)CC1 [Compound 3]		52.4 ± 23.3	75.9 ± 15.0%	42.7 ± 9.6	9.6 ± 16.7	0.0 ± 0.0	76.3 ± 24.4	130 ± 30	Ratio of protection at 3 h divided by the protection at 5 h (duration of action) ([1]; 10 μmol/kg i.p.): 0.13
O=C(O)c1cc(O)c2ccc(-c3ccc(C(F)(F)F)cc3)cc2c1 [Compound 2]	reversed the allodynia	23.4 ± 21.2	64.2 ± 24.9%	59.8 ± 18.1	35.2 ± 22.2	0.0 ± 0.0	3200 ± 640	1600 ± 250	
